Data as given in ChEMBL document CHEMBL1157445, “Design, synthesis and evaluation of isaindigotone derivatives as acetylcholinesterase and butyrylcholinesterase inhibitors” (Bioorg Med Chem Lett, 2008).

How the values were obtained:
Cholinesterase [1] = biological target: Cholinesterase (Equus caballus, UniProt P81908)
Description: Inhibition of equine serum BuchE

Acetylcholinesterase [2] = biological target: Acetylcholinesterase (Electrophorus electricus, UniProt O42275)
Description: Inhibition of electric eel AchE

Cholinesterase [3] = biological target: Cholinesterase (Homo sapiens, UniProt P06276); assay: Inhibition of BuchE
Acetylcholinesterase [4] = biological target: Acetylcholinesterase (Homo sapiens, UniProt P22303); assay: Inhibition of AchE
Acetylcholinesterase (Homo sapiens, UniProt P22303), sequence (P22303 whole entry): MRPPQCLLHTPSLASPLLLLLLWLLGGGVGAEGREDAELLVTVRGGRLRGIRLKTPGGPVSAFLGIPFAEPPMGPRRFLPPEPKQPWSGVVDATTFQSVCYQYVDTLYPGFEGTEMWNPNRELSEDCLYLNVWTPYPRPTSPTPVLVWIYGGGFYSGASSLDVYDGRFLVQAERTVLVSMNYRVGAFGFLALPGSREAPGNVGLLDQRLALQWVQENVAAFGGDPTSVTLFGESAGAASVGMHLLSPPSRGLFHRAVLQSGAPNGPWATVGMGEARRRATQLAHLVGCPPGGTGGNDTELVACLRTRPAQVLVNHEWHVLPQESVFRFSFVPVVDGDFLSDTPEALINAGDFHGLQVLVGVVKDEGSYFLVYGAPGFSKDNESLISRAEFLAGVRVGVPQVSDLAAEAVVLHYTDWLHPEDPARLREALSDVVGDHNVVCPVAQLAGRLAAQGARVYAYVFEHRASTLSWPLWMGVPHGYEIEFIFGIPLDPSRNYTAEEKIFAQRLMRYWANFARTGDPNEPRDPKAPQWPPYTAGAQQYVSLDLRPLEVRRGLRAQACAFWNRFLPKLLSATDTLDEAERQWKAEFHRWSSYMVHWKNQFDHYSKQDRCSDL

Cholinesterase (Equus caballus, UniProt P81908), sequence (P81908 whole entry): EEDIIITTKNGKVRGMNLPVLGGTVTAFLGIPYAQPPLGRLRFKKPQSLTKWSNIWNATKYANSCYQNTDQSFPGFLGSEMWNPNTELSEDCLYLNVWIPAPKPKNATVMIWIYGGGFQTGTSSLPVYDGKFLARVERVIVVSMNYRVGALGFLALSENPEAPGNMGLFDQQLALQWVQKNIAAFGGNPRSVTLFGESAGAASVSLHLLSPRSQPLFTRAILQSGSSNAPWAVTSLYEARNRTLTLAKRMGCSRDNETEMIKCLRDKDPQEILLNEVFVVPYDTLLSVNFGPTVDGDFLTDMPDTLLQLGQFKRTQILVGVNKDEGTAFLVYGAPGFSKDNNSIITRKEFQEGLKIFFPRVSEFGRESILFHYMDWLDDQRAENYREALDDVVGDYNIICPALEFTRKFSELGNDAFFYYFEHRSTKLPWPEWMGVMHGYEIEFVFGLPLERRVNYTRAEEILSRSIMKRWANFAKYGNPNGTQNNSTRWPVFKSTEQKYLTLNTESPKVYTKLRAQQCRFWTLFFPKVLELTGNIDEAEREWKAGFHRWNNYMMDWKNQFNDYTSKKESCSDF
Acetylcholinesterase (Electrophorus electricus, UniProt O42275), sequence (O42275 whole entry): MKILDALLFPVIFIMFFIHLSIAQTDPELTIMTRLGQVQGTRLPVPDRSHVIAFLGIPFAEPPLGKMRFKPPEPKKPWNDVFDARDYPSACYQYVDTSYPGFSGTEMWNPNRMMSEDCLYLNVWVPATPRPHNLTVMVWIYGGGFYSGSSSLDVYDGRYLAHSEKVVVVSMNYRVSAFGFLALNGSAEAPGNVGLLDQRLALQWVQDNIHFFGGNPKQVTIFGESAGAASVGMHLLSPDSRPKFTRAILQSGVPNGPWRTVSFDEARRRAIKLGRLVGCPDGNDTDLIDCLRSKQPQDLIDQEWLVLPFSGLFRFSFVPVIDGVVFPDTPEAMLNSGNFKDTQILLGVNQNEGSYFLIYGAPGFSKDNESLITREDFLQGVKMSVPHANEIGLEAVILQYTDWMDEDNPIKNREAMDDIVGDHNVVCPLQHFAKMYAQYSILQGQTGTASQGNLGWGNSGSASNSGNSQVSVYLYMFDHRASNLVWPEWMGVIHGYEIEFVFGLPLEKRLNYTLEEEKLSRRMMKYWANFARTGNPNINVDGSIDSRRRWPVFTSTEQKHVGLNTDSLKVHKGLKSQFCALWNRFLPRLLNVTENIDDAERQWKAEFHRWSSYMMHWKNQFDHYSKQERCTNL
Cholinesterase (Homo sapiens, UniProt P06276), sequence (P06276 whole entry): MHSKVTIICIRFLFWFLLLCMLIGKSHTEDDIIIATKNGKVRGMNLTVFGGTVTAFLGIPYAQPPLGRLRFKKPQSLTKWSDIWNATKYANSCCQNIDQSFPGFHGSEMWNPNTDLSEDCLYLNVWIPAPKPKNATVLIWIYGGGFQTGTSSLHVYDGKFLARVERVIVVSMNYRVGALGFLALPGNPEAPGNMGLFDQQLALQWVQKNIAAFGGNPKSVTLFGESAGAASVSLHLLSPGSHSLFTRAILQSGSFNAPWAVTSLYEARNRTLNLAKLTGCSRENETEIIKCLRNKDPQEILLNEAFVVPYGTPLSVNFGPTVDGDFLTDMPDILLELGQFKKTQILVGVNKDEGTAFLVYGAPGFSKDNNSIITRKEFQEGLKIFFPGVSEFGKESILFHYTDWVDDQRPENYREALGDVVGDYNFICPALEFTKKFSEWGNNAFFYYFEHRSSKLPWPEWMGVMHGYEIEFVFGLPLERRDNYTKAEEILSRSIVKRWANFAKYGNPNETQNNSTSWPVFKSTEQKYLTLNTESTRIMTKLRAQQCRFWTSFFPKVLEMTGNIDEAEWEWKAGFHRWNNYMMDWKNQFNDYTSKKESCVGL

Row | SMILES | IC50 (Cholinesterase [1]) | IC50 (Acetylcholinesterase [2]) | IC50 (Cholinesterase [3]) | IC50 (Acetylcholinesterase [4])
1 | CCN(CC)CCOc1ccc(CC2CCn3c2nc2ccccc2c3=O)cc1 (stereo not drawn) | > 20 µM | 1620 nM | – | –
2 | O=c1c2ccccc2nc2n1CC/C2=C\c1ccc(OCCN2CCCCC2)cc1 | 2.99 µM | 160 nM | – | –
3 | CCN(CC)CCCOc1ccc(CC2CCn3c2nc2ccccc2c3=O)cc1 (stereo not drawn) | > 20 µM | 8950 nM | – | –
4 | O=c1c2ccccc2nc2n1CCC2Cc1ccc(OCCN2CCCCC2)cc1 (stereo not drawn) | 8.29 µM | 750 nM | – | –
5 | O=c1c2ccccc2nc2n1CC/C2=C\c1ccc(OCCCN2CCCCC2)cc1 | 1.66 µM | 720 nM | – | –
6 | O=c1c2ccccc2nc2n1CCC2Cc1ccc(OCCCN2CCCCC2)cc1 (stereo not drawn) | 5.72 µM | 5580 nM | – | –
7 | CCN(CC)CCCOc1ccc(/C=C2\CCn3c2nc2ccccc2c3=O)cc1 | 7.12 µM | 2410 nM | – | –
8 | CCN(CC)CCOc1ccc(/C=C2\CCn3c2nc2ccccc2c3=O)cc1 | 12.7 µM | 480 nM | – | –
9 | O=c1c2ccccc2nc2n1CCC2 [DEOXYVASICINONE] | – | – | 25.1 µM | 82.5 µM
